Test results as given in patent publication US10342796B2, “Acrylanilide derivative, preparation method, and applications thereof in pharmacy” (Ancureall Pharmaceutical (Shanghai) Co., Ltd., priority 2015, dated 2019).
Read-outs that look alike come from different tables or passages of the source.

Assays:
ZR-75-30 (Her2 amp) = assay: Growth inhibition GI50 in vitro (CCK8/MTT, 72 h); assay type: cell-based; settings: Homo sapiens, ZR-75-30, EGFR wt
H2170 (Her2 amp) = assay: Growth inhibition GI50 in vitro (CCK8/MTT, 72 h); assay type: cell-based; settings: Homo sapiens, NCI-H2170, H2170, EGFR wt
HCC1954 (Her2 amp) = assay: Growth inhibition GI50 in vitro (CCK8/MTT, 72 h); assay type: cell-based; settings: Homo sapiens, HCC1954, EGFR wt
MV4-11 (FLT3-ITD) = assay: Growth inhibition GI50 in vitro (CCK8/MTT, 72 h); assay type: cell-based, human; settings: for GI50: Homo sapiens, MV4-11, FLT3-ITD; for inhibition effects: FLT3-ITD+ MV4-11 cells
Protocol: FLT3 is a kind of PTK and about 20-30% of patients with acute myelocytic leukemia (AML) in clinic express FLT3-ITD mutation protein. FLT3-ITD positive cell line MV4-11 was cultured with 1×RPMI1640 complete medium (supplement with 10% FBS).
(§1) The suspension cells were collected by centrifugation. The supernatant was discard and the cell pellet was resuspended and counted. Different cell concentrations (5˜10×10^4 cells/mL) were prepared according to the growth cycle of each cell line and then seeded on a 96-well plate (Corning), 100 μL/well. The cells were incubated over night at 37° C., 5% CO2. The compounds were added to the cells on the second day with 2 wells in parallel. The final concentration of organic solvent shall not exceed 1%. The cells were continually incubated for 72 h, and then subjected to MTT assay.
(§2) The present compounds and the reference compounds were dissolved with DMSO (Sigma), respectively. […] The storage concentration of compounds was 10 mM and kept at −20° C. They were diluted by 2 times or 10 times with serial dilution before using.
(§3) Dojindo CCK8 reagent kit was used as MTT assay. […] FC meter was used as microplate reader.
(§4) Adherent cell culture medium was discard and immediately replaced with fresh prepared medium which contains 10% CCK8 reagent (100 μL/well). For the suspension cells, CCK8 was directly added to 10% of the final concentration. The cells were continually incubated for 1˜4 h. When the color of control wells turned to dark yellow, the absorption value was measured at OD450 nm. The cell growth rate was calculated according to the following formula: cell growth rate (%)=100*(T−T0)/(C−T0), T=optical density of drug treatment cell well—optical density of blank control well; T0=optical density of cell well before drug treatment—optical density of blank control well; C=optical density of cell well of solvent control group—optical density of blank control well. […] The experiment was independently repeated 1˜3 times, and subject to biological statistical analysis.
(§5) Growth inhibition assay was conducted in the cell lines shown Table 14 with the different oncogene mutations. Each compound started at 1000 nM as an initial concentration and was diluted by 2 times with serial dilution to 0.03 nM.

H1993 (Met amp) = assay: Growth inhibition GI50 in vitro (CCK8/MTT, 72 h); assay type: cell-based; settings: Homo sapiens, NCI-H1993, H1993, EGFR wt
Protocol: (§6) Human gastric cancer cell line MKN-45 (ATCC) and NSCLC cell line NCI-H1993 (ATCC) were cultured with 1×RPMI1640 complete medium which was supplement with 10% FBS, respectively.
as §1, §2, §3, §4, §5

MKN-45 (Met amp) = assay: Growth inhibition GI50 in vitro (CCK8/MTT, 72 h); assay type: cell-based; settings: Homo sapiens, MKN-45, EGFR wt
Protocol: as §6, §1, §2, §3, §4, §5

Ramos (BTK) = assay: Growth inhibition GI50 in vitro (CCK8/MTT, 72 h); assay type: cell-based, human; settings: for GI50: Homo sapiens, Ramos, BTK; for inhibition effects: BTK+ Ramos cells
Protocol: RAMOS is human B lymphocytic leukemia cell line positively expressing BTK. It was cultured with 1×RPMI1640 complete medium (supplement with 10% FBS).
as §1, §2, §3, §4, §5

[1] = tested on: HCT116 (EGFR wt, Kras G13D); assay: Growth inhibition GI50 in vitro (CCK8/MTT, 72 h); assay type: cell-based; settings: Homo sapiens, HCT-116
Protocol: as §1, §2, §3, §4, §5

Pharmacokinetics in rat = assay type: in vivo, Sprague-Dawley (SD) rats; settings: male, Sprague-Dawley, plasma, SD rat, iv 5 mg/kg, solvent water
Protocol: Sprague-Dawley (SD) rats (male) were purchased from Shanghai SIPPR BK Laboratory Animals Co. and kept under specific pathogen-free conditions adaptively for 7 days in the Shanghai University of Traditional Chinese Medicine animal care facility (All animal studies were conducted with the approval of the University Ethics Committee). The rats were randomly divided to 2 groups (3 rats/group) for each compound. One group was administrated by tail vein injection (iv) and the other group was intragastrically administrated. The compound was formulated into a clear aqueous solution with methanesulfonic acid, PH>3.5. The rats were starved for 12 hours before drug administration and the blood samples were collected from the orbital plexus at 0 min (before drug administration), 2 min, 5 min, 15 min, 30 min, 1 h, 2 h, 4 h, 6 h, 8 h and 24 h, respectively. Each blood sample was added to a 1.5 mL centrifuge tube with heparin sodium and then centrifuged at 8000 rpm at 4° C. for 3 min. Upper blood serum was collected. The compound concentration in plasma was determined by LC-MS/MS. The pharmacokinetics parameters were calculated with the professional pharmacokinetics software WinNonlin. The experiment was repeated once.

[2] = HCT116, EGFR wt, Kras G13D, read-out: GI50

SMILES | GI50 (ZR-75-30 (Her2 amp)) [nM] | GI50 (H2170 (Her2 amp)) [nM] | GI50 (HCC1954 (Her2 amp)) [nM] | GI50 (MV4-11 (FLT3-ITD)) [nM] | GI50 (H1993 (Met amp)) [nM] | GI50 (MKN-45 (Met amp)) [nM] | GI50 (Ramos (BTK)) [nM] | GI50 [1] [nM] | GI50 [1, 2] [nM] | bioavailability (Pharmacokinetics in rat; po 25 mg/kg) [%] | bioavailability (Pharmacokinetics in rat; po 50 mg/kg) [%] | inhibition effects (MV4-11 (FLT3-ITD)) | inhibition effects (Ramos (BTK))
C=CC(=O)Nc1cc(Nc2nccc(-c3cn(C)c4ccccc34)n2)c(OC)cc1N(C)CCN(C)C [AZD9291, reference compound] | 31 | 117 | > 1000 | > 1000 | > 1000 | > 1000 | 937 | > 1000 | – | – | – | – | –
C=CC(=O)Nc1cc(Nc2nccc(Nc3cccc(Cl)c3)n2)c(OC)cc1N(C)CCN(C)C [Compound 2, N-(5-(4-(3-chloro-phenylamino)-pyrimidin-2-ylamino)-2-(2-(dimethylamino-ethyl)-methyl-amino)-4-methoxyl-phenyl)-acrylamide] | 6 | 12.6 | 375 | > 1000 | > 1000 | > 1000 | 234 | – | > 1000 | – | – | – | –
C=CC(=O)Nc1cc(Nc2nccc(Nc3ccc(OCc4ccccn4)c(Cl)c3)n2)c(OC)cc1N(C)CCN(C)C [Compound 18, N-(5-(4-(3-chloro-4-(pyridin-2-methoxyl)phenylamino)pyrimidin-2-ylamino)-2-((2-(dimethylamino)ethyl)(methyl)amino)-4-methoxyl-phenyl)-acrylamide] | 2.1 | 19.5 | 312 | > 1000 | > 1000 | > 1000 | 937 | – | > 1000 | 50.3 | – | – | –
C=CC(=O)Nc1cc(Nc2ncc(Cl)c(Nc3ccc(OCc4ccccn4)c(Cl)c3)n2)c(OC)cc1N(C)CCN(C)C [Compound 19, N-(5-(5-chloro-4-(3-chloro-4-(pyridin-2-methoxyl)phenylamino)-pyrimidin-2-ylamino)-2-((2-(dimethylamino)ethyl)(methyl)amino)-4-methoxyl-phenyl)-acrylamide] | 2.1 | 14.6 | 312 | > 1000 | > 1000 | 500 | – | – | > 1000 | – | – | – | –
C=CC(=O)Nc1cc(Nc2nccc(-n3ccc4ccc(F)cc43)n2)c(OC)cc1N(C)CCN(C)C [Compound 63, N-(5-(4-(6-fluoro-1H-indol-1-yl)-pyrimidin-2-ylamino)-2-((2-(dimethylamino)ethyl)-methyl-amino)-4-methoxyl-phenyl)-acrylamide] | – | – | – | – | – | – | – | – | – | 55.8 | – | – | –
C=CC(=O)Nc1cc(Nc2nccc(-n3ccc4c(OC)cccc43)n2)c(OC)cc1N(C)CCN(C)C [Compound 99, N-(5-(4-(4-methoxyl-1H-indol-1-yl)-pyrimidin-2-ylamino)-2-(2-(dimethylamino-ethyl)-methyl-amino)-4-methoxyl-phenyl)-acrylamide] | – | – | – | – | – | – | – | – | – | – | 40.9 | – | –
C=CC(=O)Nc1cc(Nc2nccc(-n3cnc4ccccc43)n2)c(OC)cc1N(C)CCN(C)C [Compound 106] | 12 | 9.4 | 375 | > 1000 | > 1000 | > 1000 | 234 | – | > 1000 | – | – | – | –
C=CC(=O)Nc1cc(Nc2ncnc(Nc3cccc(F)c3)n2)c(OC)cc1N(C)CCN(C)C [Compound 114, N-(5-(4-(3-fluoro-phenylamino)-[1,3,5]triazin-2-ylamino)-2-((2-dimethylamino-ethyl)-methyl-amino)-4-methoxyl-phenyl)-acrylamide] | 1.1 | 4.8 | 37.5 | 124 | > 1000 | 465 | 96.6 | – | > 1000 | – | – | moderate inhibition effects | moderate inhibition effects
C=CC(=O)Nc1cc(Nc2ncnc(Nc3cccc(Br)c3)n2)c(OC)cc1N1CCC(N2CCCC2)CC1 [Compound 118] | 2.6 | 6.8 | 37.5 | 156 | – | 465 | 148 | – | > 1000 | – | – | moderate inhibition effects | moderate inhibition effects
C=CC(=O)Nc1cc(Nc2cc(Nc3ccc(F)c(Cl)c3)ncn2)c(OC)cc1N(C)CCN(C)C [Compound 140, N-(5-(6-(3-chloro-4-fluoro-phenylamino)-pyrimidin-4-ylamino)-2-((2-dimethylamino-ethyl)-methyl-amino)-4-methoxyl-phenyl)-acrylamide] | 1.5 | 4.8 | 26.5 | > 1000 | > 1000 | > 1000 | 58.6 | – | > 1000 | – | – | moderate inhibition effects | moderate inhibition effects
C=CC(=O)Nc1cc(Nc2cc(Nc3ccc(F)c(Cl)c3)ncn2)c(OC)cc1N1CCN(C2CCN(C)CC2)CC1 [Compound 147, N-(5-(6-(3-chloro-4-fluoro-phenylamino)-pyrimidin-4-ylamino)-4-methoxyl-2-(4-(1-methylpiperidin-4-yl)-piperazin-1-yl)-phenyl)-acrylamide] | 1.5 | 4.8 | 26.5 | > 1000 | > 1000 | > 1000 | 46.8 | – | > 1000 | – | – | – | –
C=CC(=O)Nc1cc(Nc2cc(-c3cn(C(C)C)c4ccccc34)ncn2)c(OC)cc1N(C)CCN(C)C [Compound 183] | 6 | 12.5 | 156 | > 1000 | > 1000 | 500 | 78.1 | – | > 1000 | – | – | moderate inhibition effects | moderate inhibition effects
